Reference: patent publication US20250270213A1, “PI3Ka INHIBITORS” (Synnovation Therapeutics, Inc., priority 2022, published 2025)
pIC50: −log10 of the molar value.

System: T47D (PIK3CA H1047R) cells
Experiment: pS473 AKT assay with 2.5% FBS, T47D cells
Type: cell-based
Settings: Homo sapiens, pSer473 AKT, DMEM with 2.5% FBS, 2 h treatment, read-out: T47D_IC50
In short: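 In-cell chemiluminescent ELISA of AKT Ser473 phosphorylation, using anti-pSer473 primary and HRP secondary antibodies on fixed cells. T47D (PIK3CA H1047R) cells had 2 h of compound treatment in DMEM containing 2.5% FBS; IC50 derived from dose-response.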

pIC50, > 6.00:
Cc1cc(C(C)Nc2ccc(Cl)nc2-c2cnn(C)c2)c2c(c1)c(=O)n(C)c1c(C3CCN(C)CC3)ncn21 (centres unmarked) [Compound 134, 9-(1-((6-Chloro-2-(1-methyl-1H-pyrazol-4-yl)pyridin-3-yl)amino)ethyl)-4,7-dimethyl-3-(1-methylpiperidin-4-yl) imidazo[1,5-a]quinazolin-5(4H)-one]
Cc1cc(C(C)Nc2ccc(Cl)nc2-c2ncn(C)n2)c2c(c1)c(=O)n(CC(F)F)c1c2cnn1CCN1CCn2ncnc2C1 (centres unmarked) [Example 268, 9-(1-((6-chloro-2-(1-methyl-1H-1,2,4-triazol-3-yl)pyridin-3-yl)amino)ethyl)-4-(2,2-difluoroethyl)-3-(2-(5,6-dihydro-[1,2,4]triazolo[1,5-a]pyrazin-7(8H)-yl)ethyl)-7-methyl-3,4-dihydro-5H-pyrazolo[3,4-c]isoquinolin-5-one]
Cc1cc(C(C)Nc2ccc(Cl)nc2-c2ccc(=O)n(C)c2)c2c(c1)c(=O)n(C)c1c2cnn1CCO (centres unmarked) [Example 254, 9-[1-[[6-chloro-2-(1-methyl-6-oxo-3-pyridyl)-3-pyridyl]amino]ethyl]-3-(2-hydroxyethyl)-4,7-dimethyl-pyrazolo[3,4-c]isoquinolin-5-one]
Cc1cc(C(C)Nc2ccc(Cl)nc2-c2cnn(C)c2)c2c(c1)c(=O)n(C)c1c2cnn1-c1ccccn1 (centres unmarked) [Example 273, 9-(1-((6-chloro-2-(1-methyl-1H-pyrazol-4-yl)pyridin-3-yl)amino)ethyl)-4,7-dimethyl-3-(pyridin-2-yl)-3,4-dihydro-5H-pyrazolo[3,4-c]isoquinolin-5-one]
Cc1cc(C(C)Nc2ccc(Cl)nc2-c2cccnc2)c2c(c1)c(=O)n(C)c1c2cnn1C1CCN(C)CC1 (centres unmarked) [Compound 169, 9-[1-[[6-chloro-2-(3-pyridyl)-3-pyridyl]amino]ethyl]-4,7-dimethyl-3-(1-methyl-4-piperidyl)pyrazolo[3,4-c]isoquinolin-5-one]
CNC(=O)c1cc(-c2ncn3c4c(C(C)Nc5ccc(Cl)nc5-c5cnn(C)c5)cc(C)cc4c(=O)n(C)c23)ccn1 (centres unmarked) [Compound 118, 4-(9-(1-((6-chloro-2-(1-methyl-1H-pyrazol-4-yl)pyridin-3-yl)amino)ethyl)-4,7-dimethyl-5-oxo-4,5-dihydroimidazo[1,5-a]quinazolin-3-yl)-N-methylpicolinamide]
Cc1cc(C(C)Nc2ccc(Cl)nc2-c2cnn(C3CCN(C)CC3)c2)c2c(c1)c(=O)n1c3c2cnn3CCC1 (centres unmarked) [Compound 301]
Cc1cc(C(C)Nc2ccc(Cl)nc2-c2ncn(C)n2)c2c(c1)c(=O)n(C)c1c(-c3cccnc3)ncn21 (centres unmarked) [Compound 112, 9-(1-((6-Chloro-2-(1-methyl-1H-1,2,4-triazol-3-yl)pyridin-3-yl)amino)ethyl)-4,7-dimethyl-3-(pyridin-3-yl) imidazo[1,5-a]quinazolin-5(4H)-one]
CC(Nc1ccccc1C(=O)O)c1cc(Cl)cc2c(=O)n(C)c3c(cnn3C)c12 (centres unmarked) [Compound I-35, 2-((1-(7-Chloro-3,4-dimethyl-5-oxo-4,5-dihydro-3H-pyrazolo[3,4-c]isoquinolin-9-yl)ethyl)amino)benzoic acid]
CCn1ncc2c3c(C(C)Nc4ccc(Cl)nc4-c4ncn(C)n4)cc(C)cc3c(=O)n(C)c21 (centres unmarked) [Example 228, 9-(1-((6-chloro-2-(1-methyl-1H-1,2,4-triazol-3-yl)pyridin-3-yl)amino)ethyl)-3-ethyl-4,7-dimethyl-3,4-dihydro-5H-pyrazolo[3,4-c]isoquinolin-5-one]
Cc1cc(C(C)Nc2ccccc2C(=O)O)c2c(c1)c(=O)n1c3c2cnn3CCC1 (centres unmarked) [Compound I-36, 2-((1-(8-Methyl-6-oxo-4,5-dihydro-3H,6H-2,2a,5a-triazaaceanthrylen-10-yl)ethyl)amino)benzoic acid]
CCn1ncc2c3c(C(C)Nc4ccc(C)nc4C(=O)O)cc(C)cc3c(=O)n(CC)c21 (centres unmarked) [Compound I-25, 3-((1-(3,4-Diethyl-7-methyl-5-oxo-4,5-dihydro-3H-pyrazolo[3,4-c]isoquinolin-9-yl)ethyl)amino)-6-methylpicolinic acid]
[2H]C([2H])([2H])n1c(=O)c2cc(C)cc(C(C)Nc3ccc(Cl)nc3-c3cnn(C)c3)c2c2cnn(C3CCN(CC(F)F)C3)c21 (centres unmarked) [Compound 143, 9-(1-((6-chloro-2-(1-methyl-1H-pyrazol-4-yl)pyridin-3-yl)amino)ethyl)-3-(1-(2,2-difluoroethyl)pyrrolidin-3-yl)-7-methyl-4-(methyl-d3)-3,4-dihydro-5H-pyrazolo[3,4-c]isoquinolin-5-one]
Cc1cc(C(C)Nc2ccc(Cl)nc2N2CCC(O)CC2)c2c(c1)c(=O)n1c3c2cnn3CCC1 (centres unmarked) [Compound 291, 10-(1-((6-chloro-2-(4-hydroxypiperidin-1-yl)pyridin-3-yl)amino)ethyl)-8-methyl-4,5-dihydro-3H,6H-2,2a,5a-triazaaceanthrylen-6-one]
COC(=O)N1CCCC(n2ncc3c4c(C(C)Nc5ccc(Cl)nc5-c5cnn(C)c5)cc(C)cc4c(=O)n(C)c32)C1 (centres unmarked) [Example 281, methyl 3-[9-[1-[[6-chloro-2-(1-methylpyrazol-4-yl)-3-pyridyl]amino]ethyl]-4,7-dimethyl-5-oxo-pyrazolo[3,4-c]isoquinolin-3-yl]piperidine-1-carboxylate]
Cc1cc(C(C)Nc2ccc(Cl)nc2-c2ccncc2F)c2c(c1)c(=O)n(C)c1c2cnn1CC1CCN(CC(F)F)C1 (centres unmarked) [Compound 110, 9-(1-((6-Chloro-3′-fluoro-[2,4′-bipyridin]-3-yl)amino)ethyl)-3-((1-(2,2-difluoroethyl)pyrrolidin-3-yl)methyl)-4,7-dimethyl-3,4-dihydro-5H-pyrazolo[3,4-c]isoquinolin-5-one]
[2H]C([2H])([2H])n1c(=O)c2cc(C)cc(C(C)Nc3ccc(Cl)nc3-c3cnn(C)c3)c2c2cnn(C3CCN(C(=O)CO)C3)c21 (centres unmarked) [Compound 154, 9-(1-((6-Chloro-2-(1-methyl-1H-pyrazol-4-yl)pyridin-3-yl)amino)ethyl)-3-(1-(2-hydroxyacetyl)pyrrolidin-3-yl)-7-methyl-4-(methyl-d3)-3,4-dihydro-5H-pyrazolo[3,4-c]isoquinolin-5-one]
Cc1cc(C(C)Nc2ccc(Cl)nc2-c2ncn(C)n2)c2c(c1)c(=O)n(C)c1c2cnn1C1CN(CC#N)C1 (centres unmarked) [Compound 95, 2-(3-(9-(1-((6-chloro-2-(1-methyl-1H-1,2,4-triazol-3-yl)pyridin-3-yl)amino)ethyl)-4,7-dimethyl-5-oxo-4,5-dihydro-3H-pyrazolo[3,4-c]isoquinolin-3-yl)azetidin-1-yl)acetonitrile]
Cc1cc(C(C)Nc2ccc(Cl)nc2-c2ncn(C)n2)c2c(c1)c(=O)n(C)c1c2cnn1C1CCCN(C)C1 (centres unmarked) [Example 277, 9-[1-[[6-Chloro-2-(1-methyl-1,2,4-triazol-3-yl)-3-pyridyl]amino]ethyl]-4,7-dimethyl-3-(1-methyl-3-piperidyl)pyrazolo[3,4-c]isoquinolin-5-one]
Cc1cc(C(C)Nc2ccc(Cl)nc2-c2nnn(C)n2)c2c(c1)c(=O)n1c3c2cnn3CCC1 (centres unmarked) [Compound 298, 10-(1-((6-chloro-2-(2-methyl-2H-tetrazol-5-yl)pyridin-3-yl)amino)ethyl)-8-methyl-4,5-dihydro-3H,6H-2,2a,5a-triazaaceanthrylen-6-one]
CCn1c(=O)c2cc(C)cc(C(C)Nc3ccc(Cl)nc3-c3ncn(C)n3)c2c2cnn(-c3ccccn3)c21 (centres unmarked) [Example 269, 9-[1-[[6-Chloro-2-(1-methyl-1,2,4-triazol-3-yl)-3-pyridyl]amino]ethyl]-4-ethyl-7-methyl-3-(2-pyridyl)pyrazolo[3,4-c]isoquinolin-5-one]
Cc1cc(C(C)Nc2ccc(Cl)nc2-c2ncn(C)n2)c2c(c1)c(=O)n(C)c1c2cnn1C1CCN(Cc2nccn2C)CC1 (centres unmarked) [Compound 178, 9-(1-((6-chloro-2-(1-methyl-1H-1,2,4-triazol-3-yl)pyridin-3-yl)amino)ethyl)-4,7-dimethyl-3-(1-((1-methyl-1H-imidazol-2-yl)methyl)piperidin-4-yl)-3,4-dihydro-5H-pyrazolo[3,4-c]isoquinolin-5-one]
CCn1ncc2c3c(C(C)Nc4ccc(Cl)nc4-c4ccncn4)cc(C)cc3c(=O)n(C)c21 (centres unmarked) [Compound 43, 9-(1-((6-chloro-2-(pyrimidin-4-yl)pyridin-3-yl)amino)ethyl)-3-ethyl-4,7-dimethyl-3,4-dihydro-5H-pyrazolo[3,4-c]isoquinolin-5-one]
Cc1cc(C(C)Nc2ccc(Cl)nc2-c2cnn(C)c2)c2c(c1)c(=O)n(C)c1c2cnn1C1CCN(C(=O)CO)CC1 (centres unmarked) [Example 193, 9-[1-[[6-Chloro-2-(1-methylpyrazol-4-yl)-3-pyridyl]amino]ethyl]-3-[1-(2-hydroxyacetyl)-4-piperidyl]-4,7-dimethyl-pyrazolo[3,4-c]isoquinolin-5-one]
CNC(=O)c1ccc(-c2nc(Cl)ccc2OC(C)c2cc(C)cc3c(=O)n(C)c4c(cnn4C4CCN(C(C)=O)CC4)c23)cn1 (centres unmarked) [Example 283, 5-[3-[1-[3-(1-Acetyl-4-piperidyl)-4,7-dimethyl-5-oxo-pyrazolo[3,4-c]isoquinolin-9-yl]ethoxy]-6-chloro-2-pyridyl]-N-methyl-pyridine-2-carboxamide]
Cc1cc(C(C)Nc2ccc(Cl)nc2-c2noc(=O)[nH]2)c2c(c1)c(=O)n(C)c1c2cnn1C(C)C (centres unmarked) [Compound 62, 3-(6-Chloro-3-((1-(3-isopropyl-4,7-dimethyl-5-oxo-4,5-dihydro-3H-pyrazolo[3,4-c]isoquinolin-9-yl)ethyl)amino)pyridin-2-yl)-1,2,4-oxadiazol-5(4H)-one]
